This passage reports Activity results from ChEMBL document CHEMBL2073791, “Substituted pyridazino[3,4-b][1,5]benzoxazepin-5(6H)ones as multidrug-resistance modulating agents” (J Med Chem, 2004).

Sequence of ATP-dependent translocase ABCB1 (P08183 whole entry): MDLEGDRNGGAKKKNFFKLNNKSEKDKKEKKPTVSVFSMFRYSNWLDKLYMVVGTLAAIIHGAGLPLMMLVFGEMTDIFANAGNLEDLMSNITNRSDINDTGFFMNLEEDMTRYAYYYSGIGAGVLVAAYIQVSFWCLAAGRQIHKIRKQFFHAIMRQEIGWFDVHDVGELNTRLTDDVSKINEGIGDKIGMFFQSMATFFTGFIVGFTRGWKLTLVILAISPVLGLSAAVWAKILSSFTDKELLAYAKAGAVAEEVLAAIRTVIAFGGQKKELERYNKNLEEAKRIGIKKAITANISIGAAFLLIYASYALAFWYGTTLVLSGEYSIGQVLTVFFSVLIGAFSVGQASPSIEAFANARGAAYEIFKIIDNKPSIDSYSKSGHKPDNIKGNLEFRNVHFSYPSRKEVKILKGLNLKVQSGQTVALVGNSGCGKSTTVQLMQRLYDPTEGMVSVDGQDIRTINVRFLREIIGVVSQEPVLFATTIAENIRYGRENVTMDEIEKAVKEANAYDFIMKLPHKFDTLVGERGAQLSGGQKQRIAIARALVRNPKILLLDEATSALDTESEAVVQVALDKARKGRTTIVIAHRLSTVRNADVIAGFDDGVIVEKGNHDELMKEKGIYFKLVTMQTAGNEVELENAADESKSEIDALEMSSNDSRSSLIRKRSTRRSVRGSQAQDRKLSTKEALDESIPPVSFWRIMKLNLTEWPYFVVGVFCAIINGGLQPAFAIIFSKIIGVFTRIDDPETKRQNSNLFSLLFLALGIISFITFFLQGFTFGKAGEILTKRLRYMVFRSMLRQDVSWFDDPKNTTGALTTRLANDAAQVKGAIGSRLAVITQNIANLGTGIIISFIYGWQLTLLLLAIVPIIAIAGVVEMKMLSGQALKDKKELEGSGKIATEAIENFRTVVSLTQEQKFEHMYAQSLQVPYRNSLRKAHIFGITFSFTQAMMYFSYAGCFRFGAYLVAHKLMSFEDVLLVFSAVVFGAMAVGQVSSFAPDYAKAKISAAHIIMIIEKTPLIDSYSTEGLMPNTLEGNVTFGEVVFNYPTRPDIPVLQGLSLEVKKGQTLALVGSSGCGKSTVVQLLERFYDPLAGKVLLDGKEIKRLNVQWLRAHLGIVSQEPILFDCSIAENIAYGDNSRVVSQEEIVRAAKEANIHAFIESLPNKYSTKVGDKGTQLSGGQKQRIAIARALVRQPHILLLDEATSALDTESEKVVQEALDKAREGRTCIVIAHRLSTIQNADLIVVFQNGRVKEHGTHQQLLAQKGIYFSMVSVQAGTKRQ

This series concerns the target ATP-dependent translocase ABCB1 (Homo sapiens, UniProt P08183). Nature of the series: TP_TRANSPORTER: drug resistance (vincristine) in HeLa-MDR1 cells. In kind it is functional, cell-based.
In the case of `O=C1c2cc(Cl)nnc2Oc2cc(C(F)(F)F)ccc2N1CCCN1CCN(C(c2ccccc2)c2ccccc2)CC1`, the Activity result was “substrate [+]”. For the compound `O=C1c2cc(Cl)nnc2Oc2ccc(C(F)(F)F)cc2N1CCCN1CCN(Cc2ccccc2)CC1`, the Activity entry is “substrate [+]”. For `O=C1c2cc(Cl)nnc2Oc2ccc(C(F)(F)F)cc2N1CCCN1CCN(c2ccccc2)CC1`, the Activity entry was “substrate [+]”.

As for `Cc1cc(C)c2c(c1)N(CCCN1CCN(c3ccccc3)CC1)C(=O)c1cc(Cl)nnc1O2`, the Activity result is “substrate [+]”.
